Measurements published in ChEMBL document CHEMBL3763148, “Synthesis, structure elucidation, DNA-PK and PI3K and anti-cancer activity of 8- and 6-aryl-substituted-1-3-benzoxazines” (Eur J Med Chem, 2016).

Legend:
Assay type in all cases: functional
NCI-H322M = experiment: Cytotoxicity against human NCI-H322M cells assessed as cell growth inhibition at 10 uM after 48 hrs by SRB assay relative to control; conditions: read-out: GI
[1] = Cytotoxicity against human SKOV3 cells assessed as cell growth inhibition at 10 uM after 48 hrs by SRB assay relative to control; conditions: SK-OV-3, 48 h, read-out: GI
[2] = Cytotoxicity against human OVCAR5 cells assessed as cell growth inhibition at 10 uM after 48 hrs by SRB assay relative to control; conditions: OVCAR-5, 48 h, read-out: GI
MCF7 = experiment: Cytotoxicity against human MCF7 cells assessed as cell growth inhibition at 10 uM after 48 hrs by SRB assay relative to control; conditions: MCF7, 48 h, read-out: GI
[3] = Cytotoxicity against human OVCAR3 cells assessed as cell growth inhibition at 10 uM after 48 hrs by SRB assay relative to control; conditions: OVCAR-3, 48 h, read-out: GI
[4] = Cytotoxicity against human HOP62 cells assessed as cell growth inhibition at 10 uM after 48 hrs by SRB assay relative to control; conditions: HOP-62, 48 h, read-out: GI
NCI-H522 = experiment: Cytotoxicity against human NCI-H522 cells assessed as cell growth inhibition at 10 uM after 48 hrs by SRB assay relative to control; conditions: NCI-H522, 48 h, read-out: GI
[5] = Cytotoxicity against human MOLT4 cells assessed as cell growth inhibition at 10 uM after 48 hrs by SRB assay relative to control; conditions: MOLT-4, 48 h, read-out: GI
A549 = experiment: Cytotoxicity against human A549 cells assessed as cell growth inhibition at 10 uM after 48 hrs by SRB assay relative to control; conditions: A549, 48 h, read-out: GI
HT-29 = experiment: Cytotoxicity against human HT-29 cells assessed as cell growth inhibition at 10 uM after 48 hrs by SRB assay relative to control; conditions: HT-29, 48 h, read-out: GI
[6] = Cytotoxicity against human HCC2998 cells assessed as cell growth inhibition at 10 uM after 48 hrs by SRB assay relative to control; conditions: HCC 2998, 48 h, read-out: GI
KM12 = experiment: Cytotoxicity against human KM12 cells assessed as cell growth inhibition at 10 uM after 48 hrs by SRB assay relative to control; conditions: KM12, 48 h, read-out: GI
[7] = Cytotoxicity against human PC3 cells assessed as cell growth inhibition at 10 uM after 48 hrs by SRB assay relative to control; conditions: PC-3, 48 h, read-out: GI
[8] = Cytotoxicity against human COLO205 cells assessed as cell growth inhibition at 10 uM after 48 hrs by SRB assay relative to control; conditions: COLO 205, 48 h, read-out: GI
[9] = Cytotoxicity against human UACC257 cells assessed as cell growth inhibition at 10 uM after 48 hrs by SRB assay relative to control; conditions: UACC-257, 48 h, read-out: GI
[10] = Cytotoxicity against human RPMI8226 cells assessed as cell growth inhibition at 10 uM after 48 hrs by SRB assay relative to control; conditions: RPMI-8226, 48 h, read-out: GI
[11] = Cytotoxicity against human SF268 cells assessed as cell growth inhibition at 10 uM after 48 hrs by SRB assay relative to control; conditions: SF-268, 48 h, read-out: GI
NCI-H23 = experiment: Cytotoxicity against human NCI-H23 cells assessed as cell growth inhibition at 10 uM after 48 hrs by SRB assay relative to control; conditions: NCI-H23, 48 h, read-out: GI
[12] = Cytotoxicity against human HL-60(TB) cells assessed as cell growth inhibition at 10 uM after 48 hrs by SRB assay relative to control; conditions: HL-60, 48 h, read-out: GI
[13] = Cytotoxicity against human HOP92 cells assessed as cell growth inhibition at 10 uM after 48 hrs by SRB assay relative to control; conditions: HOP-92, 48 h, read-out: GI
[14] = Cytotoxicity against human RXF393 cells assessed as cell growth inhibition at 10 uM after 48 hrs by SRB assay relative to control; conditions: RXF 393, 48 h, read-out: GI
SK-MEL-5 = experiment: Cytotoxicity against human SK-MEL-5 cells assessed as cell growth inhibition at 10 uM after 48 hrs by SRB assay relative to control; conditions: SK-MEL-5, 48 h, read-out: GI
786-0 = experiment: Cytotoxicity against human 786-0 cells assessed as cell growth inhibition at 10 uM after 48 hrs by SRB assay relative to control; conditions: 786-0, 48 h, read-out: GI
[15] = Cytotoxicity against human OVCAR8 cells assessed as cell growth inhibition at 10 uM after 48 hrs by SRB assay relative to control; conditions: OVCAR-8, 48 h, read-out: GI
Malme-3M = experiment: Cytotoxicity against human MALME-3M cells assessed as cell growth inhibition at 10 uM after 48 hrs by SRB assay relative to control; conditions: read-out: GI
CCRF-CEM = experiment: Cytotoxicity against human CCRF-CEM cells assessed as cell growth inhibition at 10 uM after 48 hrs by SRB assay relative to control; conditions: read-out: GI
SK-MEL-28 = experiment: Cytotoxicity against human SK-MEL-28 cells assessed as cell growth inhibition at 10 uM after 48 hrs by SRB assay relative to control; conditions: SK-MEL-28, 48 h, read-out: GI
EKVX = experiment: Cytotoxicity against human EKVX cells assessed as cell growth inhibition at 10 uM after 48 hrs by SRB assay relative to control; conditions: read-out: GI
[16] = Cytotoxicity against human Hs 578T cells assessed as cell growth inhibition at 10 uM after 48 hrs by SRB assay relative to control; conditions: read-out: GI
A498 = experiment: Cytotoxicity against human A498 cells assessed as cell growth inhibition at 10 uM after 48 hrs by SRB assay relative to control; conditions: A498, 48 h, read-out: GI
[17] = Cytotoxicity against human IGROV1 cells assessed as cell growth inhibition at 10 uM after 48 hrs by SRB assay relative to control; conditions: IGROV-1, 48 h, read-out: GI
[18] = Cytotoxicity against human HCT15 cells assessed as cell growth inhibition at 10 uM after 48 hrs by SRB assay relative to control; conditions: HCT-15, 48 h, read-out: GI
NCI-H460 = experiment: Cytotoxicity against human NCI-H460 cells assessed as cell growth inhibition at 10 uM after 48 hrs by SRB assay relative to control; conditions: NCI-H460, 48 h, read-out: GI
SK-MEL-2 = experiment: Cytotoxicity against human SK-MEL-2 cells assessed as cell growth inhibition at 10 uM after 48 hrs by SRB assay relative to control; conditions: SK-MEL-2, 48 h, read-out: GI
NCI-H226 = experiment: Cytotoxicity against human NCI-H226 cells assessed as cell growth inhibition at 10 uM after 48 hrs by SRB assay relative to control; conditions: NCI-H226, 48 h, read-out: GI

## O=c1nc(N2CCOCC2)oc2c(-c3cccs3)cccc12
NCI-H322M
  inhibition of growth at 10 µM: 9.05%
[1]
  inhibition of growth at 10 µM: -0.56%
[2]
  inhibition of growth at 10 µM: 4.55%
MCF7
  inhibition of growth at 10 µM: 21.9%
[3]
  inhibition of growth at 10 µM: 2.61%
[4]
  inhibition of growth at 10 µM: 8.34%
NCI-H522
  inhibition of growth at 10 µM: 13.8%
[5]
  inhibition of growth at 10 µM: -0.6%
A549
  inhibition of growth at 10 µM: 5.77%
HT-29
  inhibition of growth at 10 µM: 6.61%
[6]
  inhibition of growth at 10 µM: -4.81%
KM12
  inhibition of growth at 10 µM: 1.99%
[7]
  inhibition of growth at 10 µM: 17.2%
[8]
  inhibition of growth at 10 µM: 1.02%
[9]
  inhibition of growth at 10 µM: 3.74%
[10]
  inhibition of growth at 10 µM: -0.55%
[11]
  inhibition of growth at 10 µM: 5.21%
NCI-H23
  inhibition of growth at 10 µM: 13%
[12]
  inhibition of growth at 10 µM: 3.68%
[13]
  inhibition of growth at 10 µM: 44.4%
[14]
  inhibition of growth at 10 µM: 9.88%
SK-MEL-5
  inhibition of growth at 10 µM: 13.3%
786-0
  inhibition of growth at 10 µM: 7.7%
[15]
  inhibition of growth at 10 µM: 5%
Malme-3M
  inhibition of growth at 10 µM: 16.1%
CCRF-CEM
  inhibition of growth at 10 µM: 2.36%
SK-MEL-28
  inhibition of growth at 10 µM: 2.22%
EKVX
  inhibition of growth at 10 µM: 14.1%
[16]
  inhibition of growth at 10 µM: 7.89%
A498
  inhibition of growth at 10 µM: 36.8%
[17]
  inhibition of growth at 10 µM: 8.05%
[18]
  inhibition of growth at 10 µM: 0.33%
NCI-H460
  inhibition of growth at 10 µM: -5.8%
SK-MEL-2
  inhibition of growth at 10 µM: -7.08%
NCI-H226
  inhibition of growth at 10 µM: 22%

## O=c1nc(N2CCOCC2)oc2c(-c3cccc4c3sc3ccccc34)cccc12
NCI-H322M
  inhibition of growth at 10 µM: 18.3%
[1]
  inhibition of growth at 10 µM: -11.4%
[2]
  inhibition of growth at 10 µM: 18.8%
MCF7
  inhibition of growth at 10 µM: 30.5%
[3]
  inhibition of growth at 10 µM: 13.7%
[4]
  inhibition of growth at 10 µM: 26.8%
NCI-H522
  inhibition of growth at 10 µM: 28.6%
[5]
  inhibition of growth at 10 µM: 10.4%
A549
  inhibition of growth at 10 µM: 22.5%
HT-29
  inhibition of growth at 10 µM: 16.9%
[6]
  inhibition of growth at 10 µM: 3.55%
KM12
  inhibition of growth at 10 µM: 21.6%
[7]
  inhibition of growth at 10 µM: 40.5%
[8]
  inhibition of growth at 10 µM: 3.36%
[9]
  inhibition of growth at 10 µM: 5.04%
[10]
  inhibition of growth at 10 µM: 19.7%
[11]
  inhibition of growth at 10 µM: 15.2%
NCI-H23
  inhibition of growth at 10 µM: 13.4%
[12]
  inhibition of growth at 10 µM: 11.5%
[13]
  inhibition of growth at 10 µM: 53.8%
[14]
  inhibition of growth at 10 µM: 38.4%
SK-MEL-5
  inhibition of growth at 10 µM: 17.2%
786-0
  inhibition of growth at 10 µM: 27.7%
[15]
  inhibition of growth at 10 µM: 20.2%
Malme-3M
  inhibition of growth at 10 µM: 12.4%
CCRF-CEM
  inhibition of growth at 10 µM: 19.9%
SK-MEL-28
  inhibition of growth at 10 µM: -2.77%
EKVX
  inhibition of growth at 10 µM: 28.3%
[16]
  inhibition of growth at 10 µM: 24.8%
A498
  inhibition of growth at 10 µM: 46.4%
[17]
  inhibition of growth at 10 µM: 15%
[18]
  inhibition of growth at 10 µM: 13.4%
NCI-H460
  inhibition of growth at 10 µM: 4.79%
SK-MEL-2
  inhibition of growth at 10 µM: 9.49%
NCI-H226
  inhibition of growth at 10 µM: 38.6%

## NC(=O)c1ccc(-c2cccc3c(=O)nc(N4CCOCC4)oc23)cc1
NCI-H322M
  inhibition of growth at 10 µM: 7.01%
[1]
  inhibition of growth at 10 µM: -3.41%
[2]
  inhibition of growth at 10 µM: 3.19%
MCF7
  inhibition of growth at 10 µM: 9.68%
[3]
  inhibition of growth at 10 µM: 0.57%
[4]
  inhibition of growth at 10 µM: 4.92%
NCI-H522
  inhibition of growth at 10 µM: 10.4%
[5]
  inhibition of growth at 10 µM: -2.82%
A549
  inhibition of growth at 10 µM: -0.08%
HT-29
  inhibition of growth at 10 µM: -0.51%
[6]
  inhibition of growth at 10 µM: -1.23%
KM12
  inhibition of growth at 10 µM: 2.45%
[7]
  inhibition of growth at 10 µM: 10.1%
[8]
  inhibition of growth at 10 µM: -3.93%
[9]
  inhibition of growth at 10 µM: -3.78%
[10]
  inhibition of growth at 10 µM: -4.18%
[11]
  inhibition of growth at 10 µM: 6.21%
NCI-H23
  inhibition of growth at 10 µM: 7.55%
[12]
  inhibition of growth at 10 µM: 2.5%
[14]
  inhibition of growth at 10 µM: -4.38%
SK-MEL-5
  inhibition of growth at 10 µM: 2.24%
786-0
  inhibition of growth at 10 µM: -0.31%
[15]
  inhibition of growth at 10 µM: -1.1%
Malme-3M
  inhibition of growth at 10 µM: 14.6%
CCRF-CEM
  inhibition of growth at 10 µM: 1.37%
SK-MEL-28
  inhibition of growth at 10 µM: -3.25%
EKVX
  inhibition of growth at 10 µM: 2.66%
[16]
  inhibition of growth at 10 µM: 2.8%
A498
  inhibition of growth at 10 µM: 1.82%
[17]
  inhibition of growth at 10 µM: -3.1%
[18]
  inhibition of growth at 10 µM: -2.19%
NCI-H460
  inhibition of growth at 10 µM: -5.06%
SK-MEL-2
  inhibition of growth at 10 µM: -2.17%
NCI-H226
  inhibition of growth at 10 µM: 17.4%
